Calls of active or inactive are those of the source. The calls are words filed in the database; no cut-off is given here.
How the values were obtained:
Histone deacetylase 1 [1] = molecular target: T1, Histone deacetylase 1 (Homo sapiens, UniProt Q13547); assay: Inhibition of recombinant human HDAC1 expressed in HEK293T cells at 10 uM using Ac-KGLGK(Ac)-MCA as substrate after 30 mins in presence of DTT by fluorescence assay
DU-145 = assay: Growth inhibition of human DU145 cells after 48 hrs by sulforhodamine B-based colorimetric assay; assay type: functional, cell-based; settings: DU-145, 48 h; for GI50: read-out: GI50
MCF7 = assay: Growth inhibition of human MCF7 cells after 48 hrs by sulforhodamine B-based colorimetric assay; assay type: functional, cell-based; settings: MCF7, 48 h; for GI50: read-out: GI50
HCT-116 = assay: Growth inhibition of human HCT116 cells after 48 hrs by sulforhodamine B-based colorimetric assay; assay type: functional, cell-based; settings: HCT-116, 48 h; for GI50: read-out: GI50
[2] = molecular target: T2, DNA topoisomerase 2-alpha (Homo sapiens, UniProt P11388); assay: Inhibition of human placenta topoisomerase 2alpha assessed as reduction in pBR322 supercoiled DNA relaxation after 30 mins by ethidium bromide staining based agarose gel electrophoresis
Histone deacetylase 1 [3] = molecular target: T1, Histone deacetylase 1; assay: Inhibition of recombinant human HDAC1 expressed in HEK293T cells using Ac-KGLGK(Ac)-MCA as substrate after 30 mins in presence of DTT by fluorescence assay
[4] = molecular target: T3, Protein deacetylase HDAC6 (Mus musculus, UniProt Q9Z2V5); assay: Inhibition of recombinant mouse HDAC6 expressed in HEK293T cells co-expressing mouse HDA2 using Ac-KGLGK(Ac)-MCA as substrate after 30 mins in presence of DTT by fluorescence assay
T3 sequence (Q9Z2V5 whole entry): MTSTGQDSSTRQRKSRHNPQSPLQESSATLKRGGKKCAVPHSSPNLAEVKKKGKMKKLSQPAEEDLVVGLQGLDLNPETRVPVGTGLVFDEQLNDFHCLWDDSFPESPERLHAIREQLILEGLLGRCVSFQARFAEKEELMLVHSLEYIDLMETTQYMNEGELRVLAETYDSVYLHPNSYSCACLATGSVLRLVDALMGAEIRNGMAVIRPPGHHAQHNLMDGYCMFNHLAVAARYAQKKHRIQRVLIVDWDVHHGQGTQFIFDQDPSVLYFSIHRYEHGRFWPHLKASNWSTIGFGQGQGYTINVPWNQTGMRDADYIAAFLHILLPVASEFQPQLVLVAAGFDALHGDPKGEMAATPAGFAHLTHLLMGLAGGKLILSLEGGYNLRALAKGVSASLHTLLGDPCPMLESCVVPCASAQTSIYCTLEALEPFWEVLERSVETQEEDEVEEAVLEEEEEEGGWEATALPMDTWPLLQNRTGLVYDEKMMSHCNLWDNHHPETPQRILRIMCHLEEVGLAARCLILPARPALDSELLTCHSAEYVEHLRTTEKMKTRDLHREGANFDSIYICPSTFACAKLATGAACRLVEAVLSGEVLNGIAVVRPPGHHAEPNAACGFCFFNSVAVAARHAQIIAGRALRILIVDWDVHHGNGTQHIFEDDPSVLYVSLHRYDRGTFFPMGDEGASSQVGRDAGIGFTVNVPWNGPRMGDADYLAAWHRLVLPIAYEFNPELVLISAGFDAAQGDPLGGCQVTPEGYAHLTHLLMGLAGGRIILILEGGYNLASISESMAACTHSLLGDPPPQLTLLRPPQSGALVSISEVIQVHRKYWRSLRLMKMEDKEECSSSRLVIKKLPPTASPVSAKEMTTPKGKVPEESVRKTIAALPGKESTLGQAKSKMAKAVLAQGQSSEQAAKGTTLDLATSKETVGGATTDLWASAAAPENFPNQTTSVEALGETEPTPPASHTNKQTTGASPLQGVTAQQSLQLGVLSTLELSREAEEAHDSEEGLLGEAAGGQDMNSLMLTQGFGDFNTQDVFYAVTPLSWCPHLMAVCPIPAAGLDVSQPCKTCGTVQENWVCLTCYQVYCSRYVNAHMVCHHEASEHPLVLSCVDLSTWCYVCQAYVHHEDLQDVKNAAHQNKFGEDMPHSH

[5] = molecular target: T2, DNA topoisomerase 2-alpha; assay: Inhibition of human topoisomerase-2 alpha-mediated kinetoplast DNA decatenation at 200 uM after 30 mins by ethidium bromide staining based agarose gel electrophoresis

T2 sequence (P11388 whole entry): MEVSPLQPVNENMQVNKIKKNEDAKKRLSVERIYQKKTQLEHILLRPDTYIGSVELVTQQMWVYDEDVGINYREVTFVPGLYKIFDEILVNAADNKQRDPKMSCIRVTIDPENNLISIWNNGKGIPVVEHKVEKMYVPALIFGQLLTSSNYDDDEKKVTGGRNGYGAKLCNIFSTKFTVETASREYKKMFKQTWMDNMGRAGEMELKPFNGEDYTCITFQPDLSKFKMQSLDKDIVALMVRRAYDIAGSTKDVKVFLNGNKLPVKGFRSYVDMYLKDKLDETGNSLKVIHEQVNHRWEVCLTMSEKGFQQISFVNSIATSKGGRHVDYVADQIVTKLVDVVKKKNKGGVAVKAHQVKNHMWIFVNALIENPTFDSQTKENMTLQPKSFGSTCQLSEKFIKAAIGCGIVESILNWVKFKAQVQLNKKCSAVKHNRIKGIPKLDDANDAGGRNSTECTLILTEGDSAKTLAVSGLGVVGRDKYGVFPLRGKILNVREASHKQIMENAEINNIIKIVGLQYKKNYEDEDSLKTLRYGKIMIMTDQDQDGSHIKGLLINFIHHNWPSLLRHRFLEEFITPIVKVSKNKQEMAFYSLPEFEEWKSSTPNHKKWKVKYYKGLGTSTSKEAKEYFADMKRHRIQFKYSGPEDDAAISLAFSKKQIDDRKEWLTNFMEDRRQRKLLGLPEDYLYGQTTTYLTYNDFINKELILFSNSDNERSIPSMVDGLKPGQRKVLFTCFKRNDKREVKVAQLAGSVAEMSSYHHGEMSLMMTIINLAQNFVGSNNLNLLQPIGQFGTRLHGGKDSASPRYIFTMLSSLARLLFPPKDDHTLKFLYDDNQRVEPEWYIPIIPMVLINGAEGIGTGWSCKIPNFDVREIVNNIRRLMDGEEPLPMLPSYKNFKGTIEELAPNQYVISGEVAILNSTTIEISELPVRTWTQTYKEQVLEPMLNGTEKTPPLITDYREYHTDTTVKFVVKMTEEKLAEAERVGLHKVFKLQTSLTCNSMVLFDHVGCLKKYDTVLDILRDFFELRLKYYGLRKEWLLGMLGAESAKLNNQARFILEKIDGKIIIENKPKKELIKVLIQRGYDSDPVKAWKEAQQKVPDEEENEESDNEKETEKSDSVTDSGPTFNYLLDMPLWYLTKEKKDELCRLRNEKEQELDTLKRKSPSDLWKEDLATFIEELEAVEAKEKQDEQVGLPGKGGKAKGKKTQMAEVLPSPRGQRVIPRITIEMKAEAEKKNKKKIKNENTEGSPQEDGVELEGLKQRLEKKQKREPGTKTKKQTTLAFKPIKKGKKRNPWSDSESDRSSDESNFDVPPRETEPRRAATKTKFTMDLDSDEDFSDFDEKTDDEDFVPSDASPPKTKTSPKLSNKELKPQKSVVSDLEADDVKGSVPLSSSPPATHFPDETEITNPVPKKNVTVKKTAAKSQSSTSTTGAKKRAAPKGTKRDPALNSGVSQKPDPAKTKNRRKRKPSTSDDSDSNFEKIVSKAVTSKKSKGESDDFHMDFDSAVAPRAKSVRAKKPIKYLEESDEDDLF
T1 sequence (Q13547 whole entry): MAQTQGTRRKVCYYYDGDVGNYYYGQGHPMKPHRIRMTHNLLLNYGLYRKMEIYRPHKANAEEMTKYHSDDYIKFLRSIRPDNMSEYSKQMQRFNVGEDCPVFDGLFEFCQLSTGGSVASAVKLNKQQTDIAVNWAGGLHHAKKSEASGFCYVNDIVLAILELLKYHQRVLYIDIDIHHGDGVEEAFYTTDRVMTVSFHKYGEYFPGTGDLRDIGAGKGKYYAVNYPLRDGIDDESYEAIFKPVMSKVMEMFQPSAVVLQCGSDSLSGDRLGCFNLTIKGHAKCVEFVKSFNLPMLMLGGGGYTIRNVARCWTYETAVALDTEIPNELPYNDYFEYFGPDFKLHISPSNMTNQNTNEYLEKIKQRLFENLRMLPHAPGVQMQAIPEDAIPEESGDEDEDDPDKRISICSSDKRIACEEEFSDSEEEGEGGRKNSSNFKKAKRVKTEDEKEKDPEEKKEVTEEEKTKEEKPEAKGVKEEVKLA

`Cc1cn([C@H]2C[C@H](C3(c4ccc(NC(=O)CCCCCCC(=O)O)cc4)SCCCS3)[C@@H](CO[Si](C)(C)C(C)(C)C)O2)c(=O)[nH]c1=O` was tested, and the inhibition (Histone deacetylase 1 [1]) was “inactive”, the IC50 (DU-145) was 15.5 µM and the IC50 (MCF7) was 12.3 µM. It also gave an IC50 (HCT-116) of 12.3 µM.

Work on `CC(/C=C/C(=O)NO)=C\C(C)C(=O)c1ccc(C2([C@H]3CC(=O)O[C@@H]3CO[Si](C)(C)C(C)(C)C)SCCCS2)cc1` (stereo not given in full) yielded an IC50 [2] of 3 µM and an IC50 (Histone deacetylase 1 [3]) of 1.2 µM.

With `COc1ccc(C2([C@H]3C[C@H](n4cc(C)c(=O)[nH]c4=O)O[C@@H]3CO[Si](C)(C)C(C)(C)C)SCCCS2)cc1OC` the IC50 [2] was 19.1 µM, the IC50 [4] was > 10 µM and the GI50 (DU-145) was 3.72 µM. For the same compound, the IC50 (Histone deacetylase 1 [3]) was > 10 µM, the GI50 (MCF7) was 3.31 µM and the GI50 (HCT-116) was 3.63 µM.

Compound `COc1ccc(C2([C@H]3CC(=O)O[C@@H]3CO[Si](C)(C)C(C)(C)C)SCCCS2)cc1OC` has an IC50 [2] of 55.3 µM.

For `CC(C)(C)[Si](C)(C)OC[C@H]1OC(=O)C[C@@H]1C1(c2ccccc2)SCCCS1`, the IC50 [2] was 26.1 µM.

With `COc1cc([C@@H]2c3cc4c(cc3[C@@H](O[C@@H]3O[C@@H]5CO[C@@H](C)O[C@H]5[C@H](O)[C@H]3O)[C@H]3COC(=O)[C@H]23)OCO4)cc(OC)c1O` the inhibition [5] was “Active”.

`Cc1cn([C@H]2C[C@H](C3(c4ccc(NC(=O)CCCCCC(=O)NO)cc4)SCCCS3)[C@@H](CO[Si](C)(C)C(C)(C)C)O2)c(=O)[nH]c1=O` gave an IC50 [4] of 0.11 µM, a GI50 (DU-145) of 20.9 µM and an IC50 (Histone deacetylase 1 [3]) of 0.9 µM. It also gave a GI50 (MCF7) of 15.4 µM and a GI50 (HCT-116) of 17.4 µM.

With `Cc1cn([C@@H]2C[C@H](C3(c4ccc(NC(=O)CCCCCC(=O)NO)cc4)SCCCS3)[C@@H](CO[Si](C)(C)C(C)(C)C)O2)c(=O)[nH]c1=O` the IC50 [4] was 0.081 µM, the GI50 (DU-145) was 28.8 µM and the IC50 (Histone deacetylase 1 [3]) was 0.59 µM. The GI50 (MCF7) was 17.8 µM and the GI50 (HCT-116) was 14.8 µM.

With `Cc1cn([C@H]2C[C@H](C3(c4ccc(NC(=O)CCCCC(=O)NO)cc4)SCCCS3)[C@@H](CO[Si](C)(C)C(C)(C)C)O2)c(=O)[nH]c1=O` the IC50 [4] was 0.56 µM, the GI50 (DU-145) was 14.8 µM and the IC50 (Histone deacetylase 1 [3]) was 2.5 µM. The GI50 (MCF7) was 5.5 µM and the GI50 (HCT-116) was 26.3 µM.

`Cc1cn([C@@H]2C[C@H](C3(c4ccc(NC(=O)CCCCC(=O)NO)cc4)SCCCS3)[C@@H](CO[Si](C)(C)C(C)(C)C)O2)c(=O)[nH]c1=O` showed an IC50 [4] of 0.59 µM, a GI50 (DU-145) of 49 µM and an IC50 (Histone deacetylase 1 [3]) of 2.8 µM. It also gave a GI50 (MCF7) of 5.37 µM and a GI50 (HCT-116) of 26.3 µM.

From ChEMBL document CHEMBL4219122, “Synthesis and biological evaluation of histone deacetylase and DNA topoisomerase II-Targeted inhibitors” (Bioorg Med Chem, 2018)
